Measurements taken from US11891365B2, “3-alkyl-4-amido-bicyclic [4,5,0] hydroxamic acids as HDAC inhibitors” (Valo Health, Inc., priority 2015, dated 2024).

Molecular target: T1, Full length human recombinant HDAC6 protein (Homo sapiens, UniProt Q9UBN7)
T1 sequence (Q9UBN7 1-1215): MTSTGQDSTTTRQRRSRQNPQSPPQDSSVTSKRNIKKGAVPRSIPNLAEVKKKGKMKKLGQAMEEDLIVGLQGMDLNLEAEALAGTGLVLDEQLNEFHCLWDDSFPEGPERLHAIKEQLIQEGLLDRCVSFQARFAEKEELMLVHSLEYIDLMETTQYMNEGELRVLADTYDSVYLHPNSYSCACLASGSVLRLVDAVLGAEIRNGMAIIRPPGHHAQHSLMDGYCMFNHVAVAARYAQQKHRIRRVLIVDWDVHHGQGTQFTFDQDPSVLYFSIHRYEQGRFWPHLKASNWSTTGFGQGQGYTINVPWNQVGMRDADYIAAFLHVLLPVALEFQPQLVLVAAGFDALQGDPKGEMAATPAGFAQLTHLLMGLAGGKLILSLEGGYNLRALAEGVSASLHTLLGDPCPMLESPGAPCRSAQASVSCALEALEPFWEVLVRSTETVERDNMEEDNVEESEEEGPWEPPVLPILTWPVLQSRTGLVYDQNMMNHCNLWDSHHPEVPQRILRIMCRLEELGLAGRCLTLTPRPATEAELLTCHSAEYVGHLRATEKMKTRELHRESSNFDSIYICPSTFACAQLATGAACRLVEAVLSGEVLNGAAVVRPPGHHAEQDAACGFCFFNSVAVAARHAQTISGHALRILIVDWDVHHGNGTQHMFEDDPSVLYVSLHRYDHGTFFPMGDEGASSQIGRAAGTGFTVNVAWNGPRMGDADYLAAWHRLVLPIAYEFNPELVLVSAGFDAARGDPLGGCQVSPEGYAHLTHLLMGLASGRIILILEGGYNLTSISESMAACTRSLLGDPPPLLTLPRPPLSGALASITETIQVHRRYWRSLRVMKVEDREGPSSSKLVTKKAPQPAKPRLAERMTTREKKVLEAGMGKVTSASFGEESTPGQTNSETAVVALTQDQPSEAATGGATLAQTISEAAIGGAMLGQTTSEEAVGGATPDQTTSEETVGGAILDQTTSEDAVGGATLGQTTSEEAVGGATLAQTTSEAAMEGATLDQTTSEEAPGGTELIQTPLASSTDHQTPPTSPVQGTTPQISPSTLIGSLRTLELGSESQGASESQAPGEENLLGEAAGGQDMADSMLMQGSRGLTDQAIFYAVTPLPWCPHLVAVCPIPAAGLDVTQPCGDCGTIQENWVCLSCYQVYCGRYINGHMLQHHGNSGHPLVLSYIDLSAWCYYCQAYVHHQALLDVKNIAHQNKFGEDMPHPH
Experiment: In vitro histone deacetylase assay: enzymatic HDAC6 electrophoretic mobility shift assay
Assay type: biochemical
Conditions: 1 nM enzyme, 2 μM peptide substrate RHKK(Ac)-NH2, 25° C., 12 concentrations; read-out: Inhibitory Concentration (IC50) Values against HDAC6, Activity Range

IC50 | SMILES
≤ 100 nM | CC[C@H]1COc2cc(C(=O)NO)ccc2CN1C(=O)C1CCOCC1 [(S)-3-ethyl-N-hydroxy-4-(tetrahydro-2H-pyran-4-carbonyl)-2,3,4,5-tetrahydrobenzo[f][1,4]oxazepine-8-carboxamide]
≤ 100 nM | C[C@H]1COc2cc(C(=O)NO)ccc2CN1C(=O)C1CCS(=O)(=O)CC1 [(S)-4-(1,1-dioxidotetrahydro-2H-thiopyran-4-carbonyl)-N-hydroxy-3-methyl-2,3,4,5-tetrahydrobenzo[f][1,4]oxazepine-8-carboxamide]
≤ 100 nM | C[C@H]1COc2cc(C(=O)NO)ccc2CN1C(=O)C1CS(=O)(=O)C1 [(S)-4-(1,1-dioxidothietane-3-carbonyl)-N-hydroxy-3-methyl-2,3,4,5-tetrahydrobenzo[f][1,4]oxazepine-8-carboxamide]
≤ 100 nM | CC(=O)N1CCC(C(=O)N2Cc3ccc(C(=O)NO)cc3OC[C@@H]2C)CC1 [(S)-4-(1-acetylpiperidine-4-carbonyl)-N-hydroxy-3-methyl-2,3,4,5-tetrahydrobenzo[f][1,4]oxazepine-8-carboxamide]
≤ 100 nM | C[C@H]1COc2cc(C(=O)NO)ccc2CN1C(=O)C1CCN(C=O)CC1 [(S)-4-(1-formylpiperidine-4-carbonyl)-N-hydroxy-3-methyl-2,3,4,5-tetrahydrobenzo[f][1,4]oxazepine-8-carboxamide]
≤ 100 nM | C[C@H]1COc2cc(C(=O)NO)ccc2CN1C(=O)c1nc2ccccc2[nH]1 [(S)-4-(1H-benzo[d]imidazole-2-carbonyl)-N-hydroxy-3-methyl-2,3,4,5-tetrahydrobenzo[f][1,4]oxazepine-8-carboxamide]
100 to 500 nM | CC1(C)C[C@@H]1C(=O)N1CCOc2cc(C(=O)NO)ccc2C1 [(S)-4-(2,2-dimethylcyclopropane-1-carbonyl)-N-hydroxy-2,3,4,5-tetrahydrobenzo[f][1,4]oxazepine-8-carboxamide]
≤ 100 nM | C[C@H]1COc2cc(C(=O)NO)ccc2CN1C(=O)C(C)(C)c1ccc(F)cc1 [(S)-4-(2-(4-fluorophenyl)-2-methylpropanoyl)-N-hydroxy-3-methyl-2,3,4,5-tetrahydrobenzo[f][1,4]oxazepine-8-carboxamide]
≤ 100 nM | C[C@H]1COc2cc(C(=O)NO)ccc2CN1C(=O)CCOc1ccc(F)cc1 [(S)-4-(3-(4-fluorophenoxy)propanoyl)-N-hydroxy-3-methyl-2,3,4,5-tetrahydrobenzo[f][1,4]oxazepine-8-carboxamide]
≤ 100 nM | C[C@H]1COc2cc(C(=O)NO)ccc2CN1C(=O)C(C)(C)Cc1ccc(F)cc1 [(S)-4-(3-(4-fluorophenyl)-2,2-dimethylpropanoyl)-N-hydroxy-3-methyl-2,3,4,5-tetrahydrobenzo[f][1,4]oxazepine-8-carboxamide]
≤ 100 nM | C[C@H]1COc2cc(C(=O)NO)ccc2CN1C(=O)C1CC(OCc2ccccc2)C1 (stereo partly drawn) [(S)-4-(3-(benzyloxy)cyclobutane-1-carbonyl)-N-hydroxy-3-methyl-2,3,4,5-tetrahydrobenzo[f][1,4]oxazepine-8-carboxamide]
≤ 100 nM | CCC1(C(=O)N2Cc3ccc(C(=O)NO)cc3OC[C@@H]2C)COC1 [(S)-4-(3-ethyloxetane-3-carbonyl)-N-hydroxy-3-methyl-2,3,4,5-tetrahydrobenzo[f][1,4]oxazepine-8-carboxamide]
≤ 100 nM | C[C@H]1COc2cc(C(=O)NO)ccc2CN1C(=O)c1ccc(F)cc1 [(S)-4-(4-fluorobenzoyl)-N-hydroxy-3-methyl-2,3,4,5-tetrahydrobenzo[f][1,4]oxazepine-8-carboxamide]
≤ 100 nM | C[C@H]1COc2cc(C(=O)NO)ccc2CN1C(=O)C1(F)CCOCC1 [(S)-4-(4-fluorotetrahydro-2H-pyran-4-carbonyl)-N-hydroxy-3-methyl-2,3,4,5-tetrahydrobenzo[f][1,4]oxazepine-8-carboxamide]
≤ 100 nM | C[C@H]1COc2cc(C(=O)NO)ccc2CN1C(=O)[C@@H]1CCOC(C)(C)C1 [(S)-4-((R)-2,2-dimethyltetrahydro-2H-pyran-4-carbonyl)-N-hydroxy-3-methyl-2,3,4,5-tetrahydrobenzo[f][1,4]oxazepine-8-carboxamide]
